Assay results taken from patent US5237055A, “Chemical modification of 2"-amino group in elsamicin A” (Bristol-Myers Squibb Company, priority 1992, dated 1993).
In brackets after ≈: the same amount, converted by molar mass. Structures can show the parent of a compound that is named as a salt.

Key:
[1] = tested on: murine melanoma B16-F10 cells; experiment: cells; conditions: Mus musculus, B16-F10, 72 h, read-out: Cytotoxicity IC50
Description: For in vitro cytotoxicity experiment, murine melanoma B16-F10 cells were grown and maintained in Eagle's minimum essential medium (Nissui), which contains kanamycin (60 μg/ml), supplemented with heat-inactivated fetal calf serum (10%) and nonessential amino acids (0.6%) at 37° C. under a humidified atmosphere in a 5% CO2 incubator. Exponentially growing B16-F10 cells were harvested, counted and suspended in the culture medium at the concentration of 2.0×10^4 cells/ml. The cell suspension (180 μl) was planted into wells of a 96-well microtiter plate and incubated for 24 hours. Test compounds (20 μl) were added to the wells and the plates were further incubated for 72 hours. The cytotoxic activity was colorimetrically determined at 540 nm after staining viable cells with neutral red solution.

[2] = tested on: lymphocytic leukemia P388; experiment: In vivo antitumor activity against P388 leukemia in mice; parameters: species or system mice (female CDF1); conditions: for prolongation of life-span in the P388-bearing mice / times less active than the parent compound in terms of minimum effective doses (MED): P388, Q1Dx3, ip; for times less active than the parent compound in terms of minimum effective doses (MED): relative to elsamicin A
Description: (§1) Among the derivatives tested, in vivo antitumor activity of six derivatives showing relatively potent cytotoxicity was tested in the lymphocytic leukemia P388 and B16 melanoma systems. Female CDF1 (for P388) and male BDF1 (for B16) mice were inoculated by ip injection at 10^6 P388 cells and 0.5 ml of a 10% B16 brei per mouse, respectively (day 0). […] The percent increase of median survival time (MST) of treated animals over that of untreated control animals was determined and reported as T/C %. Compounds showing T/C % values of 125 or greater are considered to have significant antitumor activity. […] The others had no activity at the doses tested. Derivatives 4d, 4e, and 5 when tested in the B16 system, also gave 10-30 times less antitumor activity than elsamicin A in terms of MED (Table 5).

B16 melanoma = experiment: In vivo antitumor activity against B16 melanoma in mice; parameters: species or system mice (male BDF1); conditions: B16, Q4Dx3 ip; relative to elsamicin A
Description: as §1

Compound: CN[C@H]1[C@@H](O[C@H]2[C@H](Oc3cccc4c(O)c5c(=O)oc6ccc(C)c7c(=O)oc(c34)c5c67)O[C@H](C)[C@H](O)[C@]2(C)O)O[C@H](C)[C@H](O)[C@@H]1OC [Compound 4d, 2"-N-Methylelsamicin A]
- IC50 [1]: 1.7 µg/mL (≈ 2.55 µM)
- prolongation of life-span in the P388-bearing mice [2]: quite limited prolongation of life-span
- times less active than the parent compound in terms of minimum effective doses (MED) [2]: 10-30 times
- times less antitumor activity than elsamicin A in terms of MED (B16 melanoma): 10-30 times

Compound: CO[C@@H]1[C@@H](N)[C@@H](O[C@H]2[C@H](Oc3cccc4c(O)c5c(=O)oc6ccc(C)c7c(=O)oc(c34)c5c67)O[C@H](C)[C@H](O)[C@]2(C)O)O[C@H](C)[C@@H]1O [Compound 1, Elsamicin A]
- T/C % of MST ([2]; P388, 20 mg/kg/day, Q1Dx3, ip): Tox

Compound: CO[C@H]1[C@@H](O)[C@@H](C)O[C@H](O[C@H]2[C@H](Oc3cccc4c(O)c5c(=O)oc6ccc(C)c7c(=O)oc(c34)c5c67)O[C@H](C)[C@H](O)[C@]2(C)O)[C@@H]1NC(=O)CN [Compound 3d, 2"-N-Glycylelsamicin A]
- IC50 [1]: 4.1 µg/mL (≈ 5.77 µM)

Compound: CO[C@H]1[C@@H](O)[C@@H](C)O[C@H](O[C@H]2[C@H](Oc3cccc4c(O)c5c(=O)oc6ccc(C)c7c(=O)oc(c34)c5c67)O[C@H](C)[C@H](O)[C@]2(C)O)[C@@H]1NC(=O)CCC(=O)O [Compound 3b, 2"-N-(3-Carboxypropionyl)elsamicin A]
- IC50 [1]: 56 µg/mL (≈ 74.3 µM)

Compound: CO[C@H]1[C@@H](O)[C@@H](C)O[C@H](O[C@H]2[C@H](Oc3cccc4c(O)c5c(=O)oc6ccc(C)c7c(=O)oc(c34)c5c67)O[C@H](C)[C@H](O)[C@]2(C)O)[C@@H]1NC=N [Compound 5, 2"-N-Formimidoylelsamicin A hydrochloride]
- IC50 [1]: 0.47 µg/mL
- prolongation of life-span in the P388-bearing mice [2]: quite limited prolongation of life-span
- times less active than the parent compound in terms of minimum effective doses (MED) [2]: 10-30 times
- times less antitumor activity than elsamicin A in terms of MED (B16 melanoma): 10-30 times

Compound: CO[C@H]1[C@@H](O)[C@@H](C)O[C@H](O[C@H]2[C@H](Oc3cccc4c(O)c5c(=O)oc6ccc(C)c7c(=O)oc(c34)c5c67)O[C@H](C)[C@H](O)[C@]2(C)O)[C@@H]1NC(C)=O [Compound 3a, 2"-N-Acetylelsamicin A]
- IC50 [1]: 55 µg/mL (≈ 79.1 µM)

Compound: CO[C@H]1[C@@H](O)[C@@H](C)O[C@H](O[C@H]2[C@H](Oc3cccc4c(O)c5c(=O)oc6ccc(C)c7c(=O)oc(c34)c5c67)O[C@H](C)[C@H](O)[C@]2(C)O)[C@@H]1NC(C)C [Compound 4a, 2"-N-Isopropylelsamicin A]
- IC50 [1]: 1.5 µg/mL (≈ 2.16 µM)
- prolongation of life-span in the P388-bearing mice [2]: quite limited prolongation of life-span
- times less active than the parent compound in terms of minimum effective doses (MED) [2]: 10-30 times

Compound: CO[C@H]1[C@@H](O)[C@@H](C)O[C@H](O[C@H]2[C@H](Oc3cccc4c(O)c5c(=O)oc6ccc(C)c7c(=O)oc(c34)c5c67)O[C@H](C)[C@H](O)[C@]2(C)O)[C@@H]1N1CCOCC1 [Compound 4f, 2"-Deamino-2"-morpholinoelsamicin A]
- IC50 [1]: 11 µg/mL (≈ 15.2 µM)

Compound: CO[C@H]1[C@@H](O)[C@@H](C)O[C@H](O[C@H]2[C@H](Oc3cccc4c(O)c5c(=O)oc6ccc(C)c7c(=O)oc(c34)c5c67)O[C@H](C)[C@H](O)[C@]2(C)O)[C@@H]1N(C)C [Compound 4e, 2"-N,N-Dimethylelsamicin A]
- IC50 [1]: 0.36 µg/mL (≈ 0.528 µM)
- prolongation of life-span in the P388-bearing mice [2]: quite limited prolongation of life-span
- times less active than the parent compound in terms of minimum effective doses (MED) [2]: 10-30 times
- times less antitumor activity than elsamicin A in terms of MED (B16 melanoma): 10-30 times
